# Like-named read-outs stand apart in the source and are kept apart here.
# Key:
# [1] = test system: APAE006 in the presence of 8 micrograms per milliliter of polymyxin B nonapeptide; format: cell-based, P. aeruginosa; conditions: APAE006 with 8 micrograms per milliliter polymyxin B nonapeptide
# Method in brief: (§1)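 Broth microdilution (CLSI); CA-MHB; 3×10^5–7×10^5 CFU/mL final; 2-fold dilutions; 35° C., ambient air, 18-24 h. APAE006 lacks all active efflux pumps.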
# [2] = test system: AABA1060 (clinical isolate of Acinetobacter baumannii); experiment: MIC broth microdilution, AABA1060; format: cell-based; conditions: Acinetobacter baumannii, read-out: MIC AABA1060
# Method in brief: (§2)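 Incubation: 35° C., ambient air, 18-24 h. Medium: cation-adjusted Mueller-Hinton broth with 2-fold serial dilutions of drug. Inoculum: 3×10^5–7×10^5 CFU/mL final, per CLSI microdilution method.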
# AECO001 (ATCC25922) = experiment: MIC broth microdilution, AECO001; format: cell-based, E. coli; conditions: for MIC: Escherichia coli; for Ratio of MICs on AECO001 [Cpd (A = —CHCH3NH2)/Cpd (A = —C(CH3)2NH2)]: MIC of paired compound with A = —CHCH3NH2 divided by MIC of compound with A = —C(CH3)2NH2, n=2 data, pairs identical except for the A moiety
# Method in brief: as §2
# [3] = test system: APAE006 (strain of P. aeruginosa in which all efflux pumps are inactivated); experiment: microbe, parasite or virus in culture; format: cell-based; conditions: Pseudomonas aeruginosa, read-out: MIC APAE006, APAE006, all efflux pumps inactivated
# Method in brief: as §1
# APAE001 (ATCC27853) = experiment: MIC broth microdilution, APAE001; format: cell-based, P. aeruginosa; conditions: Pseudomonas aeruginosa, ATCC27853, read-out: MIC APAE001, APAE001 (ATCC27853)
# Method in brief: as §2
# [4] = test system: AECO063 (ATCC25922 bearing an acrAB mutation); experiment: microbe, parasite or virus in culture; format: cell-based, E. coli; conditions: Escherichia coli, ATCC25922, read-out: MIC AECO063
# Method in brief: as §2
# [5] = test system: ASAU001 (laboratory strain of S. aureus, ATCC29213); experiment: MIC broth microdilution, ASAU001; format: cell-based; conditions: Staphylococcus aureus, ATCC29213, read-out: MIC ASAU001
# Method in brief: as §2
# [6] = ATCC25922, read-out: MIC AECO001
# [7] = ATCC25922, read-out: MIC AECO001 HSA AGP
SMILES,MIC APAE006 + PMBN [1],MIC [2] [µg/mL],MIC (AECO001 (ATCC25922); [6]) [µg/mL],MIC (AECO001 (ATCC25922); [7]) [µg/mL],Ratio of MICs on AECO001 [Cpd (A = —CHCH3NH2)/Cpd (A = —C(CH3)2NH2)] (AECO001 (ATCC25922)),MIC [3] [µg/mL],MIC (APAE001 (ATCC27853)) [µg/mL],MIC [4] [µg/mL],MIC [5] [µg/mL]
"CCC#CC#Cc1ccc(C(=O)N[C@H](C(=O)NO)C(C)(C)N)cc1 [Example 91-1, N—((S)-2-Amino-1-hydroxycarbamoyl-2-methyl-propyl)-4-hexa-1,3-diynyl-benzamide]",A (MIC's of 2.0 μg/mL or less = A),< 2,< 2,< 2,7.2,< 2,< 2,< 2,2 to 16
C[C@@H](O)[C@H](NC(=O)c1ccc(C#CC#CC2CC2)cc1)C(=O)NO [Example 91-5],A (MIC's of 2.0 μg/mL or less = A),2 to 16,< 2,< 2,,< 2,< 2,< 2,16 to 64
CC(C)(O)[C@H](NC(=O)c1ccc(C#CC#CC2CC2)cc1)C(=O)NO [Example 91-6],A (MIC's of 2.0 μg/mL or less = A),< 2,< 2,< 2,,< 2,< 2,< 2,16 to 64
CCC#CC#Cc1ccc(C(=O)N[C@H](C(=O)NO)[C@@H](C)N)cc1 [Example 91-7],A (MIC's of 2.0 μg/mL or less = A),2 to 16,< 2,2 to 16,,< 2,< 2,< 2,2 to 16
CCCC#CC#Cc1ccc(C(=O)N[C@H](C(=O)NO)[C@@H](C)N)cc1 [Example 91-8],A (MIC's of 2.0 μg/mL or less = A),2 to 16,< 2,2 to 16,,< 2,< 2,< 2,2 to 16
CCCC#CC#Cc1ccc(C(=O)N[C@H](C(=O)NO)C(C)(C)N)cc1 [Example 91-9],A (MIC's of 2.0 μg/mL or less = A),< 2,< 2,< 2,5.2,< 2,< 2,< 2,2 to 16
CC(C)(N)C(NC(=O)c1ccc(C#CC#CC2CC2)cc1)C(=O)NO (stereo not shown) [Example 91-10],A (MIC's of 2.0 μg/mL or less = A),< 2,< 2,< 2,,< 2,< 2,< 2,16 to 64
CC(C)(N)[C@@H](NC(=O)c1ccc(C#CC#CC2CC2)cc1)C(=O)NO [Example 91-11],A (MIC's of 2.0 μg/mL or less = A),16 to 64,< 2,16 to 64,,< 2,2 to 16,< 2,16 to 64
CC(C)C#CC#Cc1ccc(C(=O)NC(C(=O)NO)[C@@H](C)N)cc1 (stereo partly shown) [Example 91-13],A (MIC's of 2.0 μg/mL or less = A),2 to 16,< 2,2 to 16,,< 2,< 2,< 2,2 to 16
CC(C)(N)[C@H](NC(=O)c1ccc(C#CC#CC2CCCC2)cc1)C(=O)NO [Example 91-14],A (MIC's of 2.0 μg/mL or less = A),< 2,< 2,2 to 16,3.3,< 2,< 2,< 2,2 to 16
CC(C)C#CC#Cc1ccc(C(=O)N[C@H](C(=O)NO)C(C)(C)N)cc1 [Example 91-15],A (MIC's of 2.0 μg/mL or less = A),< 2,< 2,2 to 16,6.5,< 2,< 2,< 2,2 to 16
CC(C)(N)[C@H](NC(=O)c1ccc(C#CC#CC2CCC2)cc1)C(=O)NO [Example 91-16],A (MIC's of 2.0 μg/mL or less = A),< 2,< 2,< 2,2.6,< 2,< 2,< 2,2 to 16
C[C@@H](N)[C@H](NC(=O)c1ccc(C#CC#CC2CCC2)cc1)C(=O)NO [Example 91-17],A (MIC's of 2.0 μg/mL or less = A),2 to 16,< 2,2 to 16,,< 2,< 2,< 2,16 to 64
CC(C)CCC#CC#Cc1ccc(C(=O)N[C@H](C(=O)NO)C(C)(C)O)cc1 [Example 91-18],A (MIC's of 2.0 μg/mL or less = A),2 to 16,< 2,< 2,,2 to 16,2 to 16,< 2,16 to 64
CC(C)CC#CC#Cc1ccc(C(=O)N[C@H](C(=O)NO)C(C)(C)O)cc1 [Example 91-19],A (MIC's of 2.0 μg/mL or less = A),2 to 16,< 2,< 2,,< 2,2 to 16,< 2,16 to 64
CC(C)(O)[C@H](NC(=O)c1ccc(C#CC#CCC2CCCC2)cc1)C(=O)NO [Example 91-20],A (MIC's of 2.0 μg/mL or less = A),2 to 16,< 2,2 to 16,,2 to 16,2 to 16,< 2,16 to 64

# From patent publication US9617256B2 (priority 2007, dated 2017)
